Key:
[1] = test system: dogs with flea allergic dermatitis; assay: Pruritus intensity by Actical activity monitors in flea allergic dogs; type: in vivo, Beagle dogs; settings: for Actical day, mean (standard deviation): 6am-6pm; for Actical night, mean (standard deviation): 6pm-6am
Experimental: (§1) Flea-allergic laboratory Beagle dogs are infested with fleas. Fifty (50) Ctenocephalides felis fleas, 18 to 20 days old are released on the back of every dog on D1. Dogs are combed 48 hours (D3) after infestation to reduce the number of fleas (reduction of allergen charge).
Pruritus intensity: Pruritus intensity is evaluated using activity monitors (Actical™: Actiwatch™; Cambridge Neuorotechnology Ltd, Papworth Everard, UK) according to Nuttall and McEwan. (Nuttal T and McEwan N, “Objective measurement of pruritus in dogs: a preliminary study using activity monitors”. ESVD, 2006, 17 348-351). The physical activity monitors, mounted on collars, are placed around the dog's neck and tightened to the extent that they more with the skin but not so that they compress the underlying tissues. They were put on the dogs on D −5. […] This typically allows to see the difference in activity when the dogs have fleas and are developing pruritic and inflammatory lesions (i.e. dermatitis) and then again their activity during treatment with either the Test Compound or Prednisolone. The activity monitors are typically removed at the end of each phase on D12. Activity monitors measure the movement average within 15 seconds,
(§2) Skin lesions are allowed to develop until the total lesion score reaches ˜20. The Test Compound is then given orally at 50, 150 and 300 mg/day, divided into 2 doses, for 5 days. Prednisolone (10 mg/day, orally) is used as a comparator.
(§3) Lesion scores and Actical™ measurement values are typically observed on the following days: • Pre-value: before challenge with fleas • the day of challenge with fleas (Actical™ measurements only); • D1: the day when the total lesion score reached a sufficiently high value (average lesion score 20) and treatment of the animal started. • D2 to D6,
(§4) In the treatment group, lesion scores were taken from 8 dogs. Actical™ measurements were also taken from 6 of these dogs.

[2] = test system: dogs with flea allergic dermatitis; assay: Skin lesion scores (total lesion score) in dogs with flea-allergic dermatitis; type: in vivo, Beagle dogs
Experimental: as §1
Skin observations: before flea infestations (D −1) all dogs are typically examined to establish a baseline score for erythema, papules, crusts, scales, alopecia, and excoriation. From D1, daily clinical observations are performed. Each lesion is typically graded using a scale from 0 to 3:
0=no signs 1=mild 2=moderate 3=severe
as §2
Erythema: is typically an acute clinical sign of cutaneous inflammation defined as redness of the skin caused by capillary congestion which can be aggravated by scratching. Excoriation: is typically a punctuate or linear abrasion produced by mechanical means, usually involving only the epidermis but not uncommonly reaching the papillary dermis. […] Papule: is typically a circumscribed, solid elevation with no visible fluid, varying in size from a pinhead to 1 cm. […], formed when there is a high break in the follicle wall. In the presence of bacteria, papules become pustules. Crusts: are typically dried serum, pus, or blood usually mixed with epithelial and sometimes bacterial debris. Scales: are dry or greasy laminated masses of keratin.
as §3, §4
• Erythema*, • Excoriations*, • Papules/pustules • Self induced alopecia^o, and • Scales, • Erythema and excoriations are related to pruritus • Self induced alopecia is also related to pruritus but the improvement is […] after several weeks of treatment.
Day 1 of treatment when dogs reached a sufficient lesion score to initiate treatment (average 20). Pre-values (baseline).

[3] = 50 mg/day orally in 2 doses, day 1 (treatment start)
[4] = 50 mg/day orally in 2 doses, day 2
[5] = 50 mg/day orally in 2 doses, day 3
[6] = 50 mg/day orally in 2 doses, day 4
[7] = 50 mg/day orally in 2 doses, day 5
[8] = 50 mg/day orally in 2 doses, day 6
[9] = 150 mg/day orally in 2 doses, day 1 (treatment start)
[10] = 150 mg/day orally in 2 doses, day 2
[11] = 150 mg/day orally in 2 doses, day 3
[12] = 150 mg/day orally in 2 doses, day 4
[13] = 150 mg/day orally in 2 doses, day 5
[14] = 150 mg/day orally in 2 doses, day 6
[15] = 300 mg/day orally in 2 doses, day 1 (treatment start)
[16] = 300 mg/day orally in 2 doses, day 2
[17] = 300 mg/day orally in 2 doses, day 3
[18] = 300 mg/day orally in 2 doses, day 4
[19] = 300 mg/day orally in 2 doses, day 5
[20] = 300 mg/day orally in 2 doses, day 6

## CN(C(=O)c1cc(C(F)(F)F)cc(C(F)(F)F)c1)[C@@H](/C=C/C(=O)N[C@@H]1CCCCNC1=O)Cc1ccc(Cl)c(Cl)c1 [Test Compound, N-[(E)-(R)-1-(3,4-Dichloro-benzyl)-3-((R)-2-oxo-azepan-3-ylcarbamoyl)-allyl]-N-methyl-3,5-bis-trifluoromethyl-benzamide]
[1]; 150 mg and 50 mg, after 5 days of BID administrations
  Control of pruritic activity (daytime) compared with Prednisolone: equipotent to the Prednisolone controls
[1]; [3]
  Actical day, mean (standard deviation): 88 (46) Average activity counts every 15 secs
  Actical night, mean (standard deviation): 22.1 (13.5) Average activity counts every 15 secs
[1]; [4]
  Actical day, mean (standard deviation): 64 (40) Average activity counts every 15 secs
  Actical night, mean (standard deviation): 13.2 (11.8) Average activity counts every 15 secs
[1]; [5]
  Actical day, mean (standard deviation): 72 (35) Average activity counts every 15 secs
  Actical night, mean (standard deviation): 11.5 (7.3) Average activity counts every 15 secs
[1]; [6]
  Actical day, mean (standard deviation): 67 (37) Average activity counts every 15 secs
  Actical night, mean (standard deviation): 12.6 (9.9) Average activity counts every 15 secs
[1]; [7]
  Actical day, mean (standard deviation): 62 (40) Average activity counts every 15 secs
  Actical night, mean (standard deviation): 9.8 (6.8) Average activity counts every 15 secs
[1]; [8]
  Actical day, mean (standard deviation): 48 (31) Average activity counts every 15 secs
  Actical night, mean (standard deviation): 9.9 (7.4) Average activity counts every 15 secs
[1]; 50 mg/day orally in 2 doses, fleas (day of challenge)
  Actical day, mean (standard deviation): 84 (47) Average activity counts every 15 secs
[1]; 50 mg/day orally in 2 doses, pre (before exposure to fleas)
  Actical day, mean (standard deviation): 46 (16) Average activity counts every 15 secs
[1]; [9]
  Actical day, mean (standard deviation): 58 (17) Average activity counts every 15 secs
  Actical night, mean (standard deviation): 14.6 (4.2) Average activity counts every 15 secs
[1]; [10]
  Actical day, mean (standard deviation): 48 (13) Average activity counts every 15 secs
  Actical night, mean (standard deviation): 10.7 (6.8) Average activity counts every 15 secs
[1]; [11]
  Actical day, mean (standard deviation): 53 (15) Average activity counts every 15 secs
  Actical night, mean (standard deviation): 10.6 (7.5) Average activity counts every 15 secs
[1]; [12]
  Actical day, mean (standard deviation): 44 (17) Average activity counts every 15 secs
  Actical night, mean (standard deviation): 9.4 (4.2) Average activity counts every 15 secs
[1]; [13]
  Actical day, mean (standard deviation): 60 (41) Average activity counts every 15 secs
  Actical night, mean (standard deviation): 10.4 (6.5) Average activity counts every 15 secs
[1]; [14]
  Actical day, mean (standard deviation): 40 (21) Average activity counts every 15 secs
  Actical night, mean (standard deviation): 11.2 (7.4) Average activity counts every 15 secs
[1]; 150 mg/day orally in 2 doses, fleas (day of challenge)
  Actical day, mean (standard deviation): 53 (16) Average activity counts every 15 secs
[1]; 150 mg/day orally in 2 doses, pre (before exposure to fleas)
  Actical day, mean (standard deviation): 31 (8) Average activity counts every 15 secs
[1]; [15]
  Actical day, mean (standard deviation): 114 (35) Average activity counts every 15 secs
  Actical night, mean (standard deviation): 24.6 (22.5) Average activity counts every 15 secs
[1]; [16]
  Actical day, mean (standard deviation): 116 (77) Average activity counts every 15 secs
  Actical night, mean (standard deviation): 11.9 (4.8) Average activity counts every 15 secs
[1]; [17]
  Actical day, mean (standard deviation): 99 (38) Average activity counts every 15 secs
  Actical night, mean (standard deviation): 16.8 (9.5) Average activity counts every 15 secs
[1]; [18]
  Actical day, mean (standard deviation): 107 (28) Average activity counts every 15 secs
  Actical night, mean (standard deviation): 20.7 (10.5) Average activity counts every 15 secs
[1]; [19]
  Actical day, mean (standard deviation): 129 (53) Average activity counts every 15 secs
  Actical night, mean (standard deviation): 16.2 (13.2) Average activity counts every 15 secs
[1]; [20]
  Actical day, mean (standard deviation): 79 (21) Average activity counts every 15 secs
  Actical night, mean (standard deviation): 13.3 (10.2) Average activity counts every 15 secs
[1]; 300 mg/day orally in 2 doses, fleas (day of challenge)
  Actical day, mean (standard deviation): 93 (37) Average activity counts every 15 secs
[1]; 300 mg/day orally in 2 doses, pre (before exposure to fleas)
  Actical day, mean (standard deviation): 58 (21) Average activity counts every 15 secs
[1]; 50 mg/day orally in 2 doses, Fleas (day of challenge)
  Actical night, mean (standard deviation): 6.8 (4.9) Average activity counts every 15 secs
[1]; 50 mg/day orally in 2 doses, Pre (before exposure to fleas)
  Actical night, mean (standard deviation): 5.2 (3.3) Average activity counts every 15 secs
[1]; 150 mg/day orally in 2 doses, Fleas (day of challenge)
  Actical night, mean (standard deviation): 6.2 (3.8) Average activity counts every 15 secs
[1]; 150 mg/day orally in 2 doses, Pre (before exposure to fleas)
  Actical night, mean (standard deviation): 4.2 (2.2) Average activity counts every 15 secs
[1]; 300 mg/day orally in 2 doses, Fleas (day of challenge)
  Actical night, mean (standard deviation): 6.8 (3.0) Average activity counts every 15 secs
[1]; 300 mg/day orally in 2 doses, Pre (before exposure to fleas)
  Actical night, mean (standard deviation): 7.0 (3.8) Average activity counts every 15 secs
[1]; Test Compound doses, in particular 50 mg, BID
  Control of nighttime activity back to baseline: positive efficacy
[2]; [4]
  Total score ctb (total lesion score compared to baseline), mean (standard deviation): −3.7 (4.9)
[2]; [5]
  Total score ctb (total lesion score compared to baseline), mean (standard deviation): −2.8 (5.5)
[2]; [6]
  Total score ctb (total lesion score compared to baseline), mean (standard deviation): −1.9 (7.1)
[2]; [7]
  Total score ctb (total lesion score compared to baseline), mean (standard deviation): −2.8 (6.4)
[2]; [8]
  Total score ctb (total lesion score compared to baseline), mean (standard deviation): −8.7 (9.9)
[2]; [10]
  Total score ctb (total lesion score compared to baseline), mean (standard deviation): −2.3 (3.3)
[2]; [11]
  Total score ctb (total lesion score compared to baseline), mean (standard deviation): −3.9 (4.0)
[2]; [12]
  Total score ctb (total lesion score compared to baseline), mean (standard deviation): −6.4 (3.3)
[2]; [13]
  Total score ctb (total lesion score compared to baseline), mean (standard deviation): −5.0 (3.8)
[2]; [14]
  Total score ctb (total lesion score compared to baseline), mean (standard deviation): −8.8 (8.8)
[2]; 300 mg, 150 mg, 50 mg
  Reduction of the lesion score (inhibition) compared with prednisolone: in the same range as the potent corticosteroid prednisolone
[2]; [16]
  Total score ctb (total lesion score compared to baseline), mean (standard deviation): −3.6 (9.1)
[2]; [17]
  Total score ctb (total lesion score compared to baseline), mean (standard deviation): −4.1 (6.4)
[2]; [18]
  Total score ctb (total lesion score compared to baseline), mean (standard deviation): −7.6 (8.4)
[2]; [19]
  Total score ctb (total lesion score compared to baseline), mean (standard deviation): −7.6 (9.7)
[2]; [20]
  Total score ctb (total lesion score compared to baseline), mean (standard deviation): −6.7 (8.1)
